According to ChEMBL document CHEMBL1156547, “10-Hydroxy-7,8-dihydropyrazino[1',2':1,5]pyrrolo[2,3-d]pyridazine-1,9(2H,6H)-diones: potent, orally bioavailable HIV-1 integrase strand-transfer inhibitors with activity against integrase mutants” (Bioorg Med Chem Lett, 2008):

Legend:
[1] = system: Human immunodeficiency virus 1; test: Ratio of IC50 for HIV1 3B with integrase F121Y mutation to IC50 for wild type HIV1 3B by single-cycle viral replication assay in presence of 10% FBS; format: functional
[2] = system: Human immunodeficiency virus 1; test: Antiviral activity against HIV1 3B in human MT4 cells assessed as reduction in p24 antigen levels after 72 hrs by multi-cycle viral replication assay in presence of 50% normal human serum; format: functional
[3] = system: Human immunodeficiency virus 1; test: Antiviral activity against HIV1 3B in human MT4 cells assessed as reduction in p24 antigen levels after 72 hrs by multi-cycle viral replication assay in presence of 10% FBS; format: functional
[4] = system: Human immunodeficiency virus 1; test: Ratio of IC50 for HIV1 3B with integrase N155S mutation to IC50 for wild type HIV1 3B by single-cycle viral replication assay in presence of 10% FBS; format: functional
[5] = system: Human immunodeficiency virus 1; test: Ratio of IC50 for HIV1 3B with integrase T66I/S153Y mutation to IC50 for wild type HIV1 3B by single-cycle viral replication assay in presence of 10% FBS; format: functional
[6] = system: Human immunodeficiency virus 1; test: Antiviral activity against wild type HIV1 3B in human P4/R5 cells assessed as beta-galactosidase activity by single-cycle viral replication assay in presence of 10% FBS; format: functional, organism-based; settings: Human immunodeficiency virus 1, 3B
[7] = Clearance in Sprague-Dawley rat at 2 mg/kg, iv; format: ADME, organism-based; set-up: dose 2 mg/kg, route intravenous; settings: in vivo
[8] = Volume of distribution in Sprague-Dawley rat at 2 mg/kg, iv; format: ADME, organism-based; set-up: dose 2 mg/kg, route intravenous; settings: in vivo
[9] = Plasma half life in Sprague-Dawley rat at 2 mg/kg, iv; format: ADME, organism-based; set-up: dose 2 mg/kg, route intravenous
[10] = Oral bioavailability in Sprague-Dawley rat at 10 mg/kg; format: ADME, organism-based; settings: in vivo
[11] = Oral bioavailability in Beagle dog; format: ADME, organism-based, Canis lupus familiaris; settings: in vivo
[12] = Clearance in Beagle dog; format: ADME, organism-based, Canis lupus familiaris; settings: in vivo
[13] = target: Human immunodeficiency virus type 1 integrase (Human immunodeficiency virus 1, UniProt Q7ZJM1); test: Inhibition of HIV1 integrase strand transfer activity
[14] = system: Human immunodeficiency virus 1; test: Antiviral activity against HIV1 with integrase Q148K mutation relative to wild type HIV1; format: functional
[15] = system: Canis familiaris; test: Half life in iv dosed Beagle dog; format: ADME, organism-based, Canis lupus familiaris; settings: in vivo

Chain of Human immunodeficiency virus type 1 integrase (Q7ZJM1 whole entry): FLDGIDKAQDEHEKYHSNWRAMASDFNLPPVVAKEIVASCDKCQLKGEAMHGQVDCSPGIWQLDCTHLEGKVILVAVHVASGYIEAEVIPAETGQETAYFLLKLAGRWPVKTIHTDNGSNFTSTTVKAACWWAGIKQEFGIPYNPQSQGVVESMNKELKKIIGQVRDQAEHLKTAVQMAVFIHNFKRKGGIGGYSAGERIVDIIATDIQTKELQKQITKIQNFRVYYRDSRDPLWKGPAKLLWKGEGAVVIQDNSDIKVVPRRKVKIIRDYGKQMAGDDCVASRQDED

SMILES	Ratio IC50 [1]	IC95 [2]	Antiviral activity (p24 reduction) [3]	Ratio IC50 [4]	Ratio IC50 [5]	IC50 [6]	clearance [7]	Vd [8]	half-life [9]	bioavailability [10]	bioavailability [11]	clearance [12]	IC50 [13]	fold change (FC) [14]	T1/2 [15]
Cc1nn(Cc2ccc(F)cc2)c(=O)c2c(O)c3n(c12)[C@@H](C)CN(C)C3=O	4	31 nM	10 nM	20	2	10 nM	–	–	–	–	–	–	–	–	–
CCN1C[C@@H](C)n2c(c(O)c3c(=O)n(Cc4ccc(F)cc4)ncc32)C1=O	8	500 nM	250 nM	10	9	52 nM	–	–	–	–	–	–	–	–	–
CN1CCn2c(c(O)c3c(=O)n(Cc4ccc(F)cc4)ncc32)C1=O	11	380 nM	120 nM	53	7	72 nM	–	–	–	–	–	–	–	–	–
Cc1nn(Cc2ccc(F)cc2)c(=O)c2c(O)c3n(c12)CCN(C)C3=O	10	130 nM	43 nM	48	8	21 nM	–	–	–	–	–	–	–	–	–
CC(C)N1C[C@H](C)n2c(c(O)c3c(=O)n(Cc4ccc(F)c(Cl)c4)ncc32)C1=O	1	220 nM	30 nM	3	1	28 nM	0.17 mL/min/kg	0.2 L/kg	13 h	14%	–	–	–	–	–
Cc1nn(Cc2ccc(F)cc2)c(=O)c2c(O)c3n(c12)[C@H](C)CN(C)C3=O	9	1000 nM	250 nM	91	8	66 nM	–	–	–	–	–	–	–	–	–
CCN1C[C@H](C)n2c(c(O)c3c(=O)n(Cc4ccc(F)c(Cl)c4)ncc32)C1=O	2	160 nM	31 nM	7	1	19 nM	0.27 mL/min/kg	0.3 L/kg	9.5 h	13%	–	–	–	–	–
Cc1nn(Cc2ccc(F)cc2)c(=O)c2c(O)c3n(c12)[C@@H](C)CN(C(C)C)C3=O	1	35 nM	16 nM	2	1	10 nM	3 mL/min/kg	0.3 L/kg	5.3 h	17%	< 5%	10 mL/min/kg	≤ 10 nM	3	1 h
CC(C)N1C[C@H](C)n2c(c(O)c3c(=O)n(Cc4ccc(F)cc4)ncc32)C1=O	2	26 nM	13 nM	6	1	19 nM	0.17 mL/min/kg	0.2 L/kg	12 h	21%	< 5%	10 mL/min/kg	≤ 10 nM	45	1 h
CCN1C[C@H](C)n2c(c(O)c3c(=O)n(Cc4ccc(F)cc4)ncc32)C1=O	5	46 nM	24 nM	27	1	16 nM	0.5 mL/min/kg	0.2 L/kg	6 h	31%	–	–	–	–	–
CCN1CC(C)(C)n2c(c(O)c3c(=O)n(Cc4ccc(F)cc4)ncc32)C1=O	10	30 nM	10 nM	27	3	19 nM	0.68 mL/min/kg	0.3 L/kg	5.2 h	13%	–	–	–	–	–
CCN1C[C@H](C)n2c(c(O)c3c(=O)n(Cc4ccc(F)cc4)nc(C)c32)C1=O	1	40 nM	17 nM	6	1	14 nM	17 mL/min/kg	2.6 L/kg	6.2 h	7%	–	–	–	–	–
